Experimental data: publication PMC7485941 (Clinical and Translational Science, 2020)
“Also recorded” adds a separate entry of the source.

Experiments:
healthy subjects [1] = assay: 12-lead ECG by time-point and categorical outlier analysis in the TQT study; assay type: in vivo, human
healthy subjects [2] = assay: Concentration-QTc; assay type: in vivo, human; conditions: for Predicted (90% CI) ΔΔQTcF at geometric mean peak concentration: PK/QTc population
healthy subjects [3] = assay: Safety and tolerability; assay type: in vivo, human; conditions: for overall percentage of TEAEs: part B
hERG channels = assay: In vitro hERG ion channel assay; assay type: cell-based, human; conditions: 160 mg twice daily
[4] = Plasma pharmacokinetics in the TQT study; conditions: for Cmax: Geometric mean Cmax (90% CI), PK/QTc population
[5] = cited from earlier work
QTc interval = conditions: therapeutic and supratherapeutic concentrations; cited from earlier work

With `COc1c(N2C[C@@H]3CCCN[C@@H]3C2)c(F)cc2c(=O)c(C(=O)O)cn(C3CC3)c12` [Moxifloxacin, moxifloxacin, reference compound] the “peak effect, mean ΔΔQTcF” value (healthy subjects [1]; moxifloxacin 400 mg, at 2.5 hours postdose) was 12.9 ms, the “mean ΔΔQTcF” value (healthy subjects [1]; moxifloxacin 400 mg, between 1 and 4 hours postdose) was “above 10 msec” and the “estimated population slope of the C-QTc relationship” value (healthy subjects [2]; moxifloxacin) was 0.005 msec per ng/mL. For the same compound, the “intercept of the C-QTc relationship” value (healthy subjects [2]; moxifloxacin) was 3.1 ms and the “overall percentage of TEAEs” value (healthy subjects [3]; moxifloxacin 400 mg) was 22.2%.
For `C=CC(=O)N1CCC([C@@H]2CCNc3c(C(N)=O)c(-c4ccc(Oc5ccccc5)cc4)nn32)CC1` [Zanubrutinib], the “Mean placebo-corrected change from baseline heart rate (ΔΔHR), magnitude (±)” value (healthy subjects [1]; all postdose time points, 160 and 480 mg) was < 5 bpm, the “Mean ΔΔPR” value (healthy subjects [1]; all time points after dosing with zanubrutinib) was < 5 ms and the “upper bound of the 90% CI of ΔΔQTcF” value (healthy subjects [1]; any postdose time point, both zanubrutinib doses) was ≤ 1.2 ms. The “participants with HR outlier values” (healthy subjects [1]; categorical outlier analysis) was “no participant with HR outlier values”, the “participants with outlier QTcF values (> 450 msec)” value (healthy subjects [1]; categorical outlier analysis, zanubrutinib 160 and 480 mg) was “No participants had outlier QTcF values; also recorded: no participant had outlier values” and the “participants with outlier ΔQTcF values (> 30 msec)” value (healthy subjects [1]; categorical outlier analysis, zanubrutinib groups) was “No participant had outlier ΔQTcF values”. The “effect on QTc interval” value (healthy subjects [1]; single 160-mg or 480-mg dose) was “did not prolong the QTc interval”, the “Predicted (90% CI) ΔΔQTcF at geometric mean peak concentration” value (healthy subjects [2]; 160 mg, n = 27) was −3.16 (−4.51 to −1.81) msec and the “Predicted (90% CI) ΔΔQTcF at geometric mean peak concentration” value (healthy subjects [2]; 480 mg, n = 28) was −3.38 (−4.86 to −1.89) msec. The “exposure margin, hERG IC50 over clinical steady-state unbound Cmax” value (hERG channels) was ~ 217 fold, the “SAEs or grade 3 or higher AEs related to administration” value (healthy subjects [3]; part A, 480 mg single dose, n = 6) was “no SAEs or grade 3 or higher AEs” and the “overall percentage of TEAEs” value (healthy subjects [3]; zanubrutinib 160 mg) was 10.0%. The “overall percentage of TEAEs” value (healthy subjects [3]; zanubrutinib 480 mg) was 13.3%, the “highest observed plasma concentration in the TQT study” value ([4]; concentration range included in C-QTc modeling) was “≈ 800 ng/mL” and the Cmax ([4]; human, in vivo, 160 mg, n = 27) was 215 ng/mL. For the same compound, the Cmax ([4]; human, in vivo, 480 mg, n = 28) was 401 ng/mL, the half-life ([4]; human, in vivo, 480 mg, mean t ½, 480-mg dose, range over part A and part B) was 8.1 to 11 h and the Tmax ([4]; human, in vivo, 480 mg, median Tmax, range over part A and part B, 160 and 480 mg, postdose) was 1.5 to 2.8 h. The “mean Cmax” value ([5]; 160 mg, patients with B-cell malignancy) was 346 ng/mL, the “mean terminal elimination half-life (t ½)” value ([5]; oral administration) was 2 to 4 h and the “clinical steady-state unbound Cmax” value ([5]; recommended phase III dose of 160 mg twice daily, no reference given) was 42 nM.
In the case of `CC#CC(=O)N1CCC[C@H]1c1nc(-c2ccc(C(=O)Nc3ccccn3)cc2)c2c(N)nccn12` [acalabrutinib], the “effect on QTc interval” value (QTc interval) is given as “not to prolong the QTc interval”.
